Laboratory results taken from patent US20180236089A1, “RADIATION EMITTING PEPTIDE NUCLEIC ACID CONJUGATES AND USES THEREOF FOR DIAGNOSIS, IMAGING, AND TREATMENT OF DISEASES, CONDITIONS AND DISORDERS” (Yissum Research Development Company of the Hebrew …, priority 2015, published 2018).
Where “and” joins values, the source holds several entries; their conditions need not be identical. Identical values can stand only once. Where no end group is shown, it is not given here. [ ]: non-standard residue; d: D form. BisQ = dye (BisQ) placed in the PNA in place of a base

Key:
[1] = UV-Vis absorption of BisQ, TO and PNA FIT probes, alone or hybridized to DNA; assay type: physicochemical; conditions: for λmaxabs: UV-Vis spectrum, maximal absorption
Panc-1 cells = test: Hybridization and imaging in living cells (confocal microscopy), Panc-1; assay type: cell-based, human; conditions: Panc-1 expressing mutated KRAS, 0.5 μM, 3 hours
Description: (§1) Three cell lines were used: Panc-1, BxPC-3 (human pancreatic carcinoma, epithelial-like), and HT-29 (human colon adenocarcinoma grade II). Cell lines were purchased from the American Type Culture Collection (ATCC, Manassas, Va., USA). Panc-1 and HT-29 expressing mutated and wild type KRAS, respectively, were cultured (37° C., 5% CO2), in DMEM medium and supplemented with 10% fetal calf serum, 2 mM L-glutamine, and 0.1 mg/mL Streptomycin (Beit Haemek Biological Industries, Israel). BxPC-3 cells expressing wild type KRAS were cultured in RPMI 1640 medium supplemented with 10% fetal calf serum, 2 mM L-glutamine, and 0.1 mg/mL Streptomycin.
(§2) Twenty four hours prior to PNA addition, Panc-1, HT-29, and BxPC-3 were plated separately on chamber slides (Ibidi GmbH, Munich, Germany) until reaching 70-80% confluence.
(§3) Before adding the PNAs, the medium was replaced and the cells were incubated (37° C., humidified atmosphere containing 5% CO2) with 0.5 μM of PNA1 and PNA2 in complete medium. Cells were washed with PBS (×3) prior to cell imaging and the intracellular fluorescence was measured after 3 hours by confocal microscopy. Design and synthesis of a new surrogate base (BisQ) with the unique feature of far-red emission. BisQ was introduced into PNAs that targets the mutated kRAS oncogene.

HT-29 cells = test: Hybridization and imaging in living cells (confocal microscopy), HT-29; assay type: cell-based, human; conditions: HT-29 expressing wild type KRAS, 0.5 μM, 3 hours
Description: as §1, §2, §3

BxPC-3 cells = test: Hybridization and imaging in living cells (confocal microscopy), BxPC-3; assay type: cell-based, human; conditions: BxPC-3 expressing wild type KRAS, 0.5 μM, 3 hours
Description: as §1, §2, §3

Compound	εmax [1]	λmaxabs [1]	intracellular red fluorescence (Panc-1 cells)	intracellular red fluorescence (HT-29 cells)	intracellular red fluorescence (BxPC-3 cells)
Fmoc-Aeg(Dy)-OH [BisQ]	41,370 M^−1cm^−1	591 nm			
(D-Lys)4-CCTCGACT[BisQ]CCGCATCC-NH2 (chain 1 [dK][dK][dK][dK]CCTCGACT-BisQ; numbers in words are those of the source; cysteine pairing not given here; also: PNA (peptide nucleic acid), BisQ joins chain 1 and chain 2 within one strand) [PNA2, BisQ paired with T; PNA FIT probe targeting mutated KRAS]	82,219 M^−1cm^−1	593 nm	red emission solely in Panc-1 cells	red emission solely in Panc-1 cells	red emission solely in Panc-1 cells
(D-Lys)4-CCTCGA[BisQ]TACCGCATCC-NH2 (chemistry not fully specified) [PNA1, BisQ paired with G; PNA FIT probe targeting mutated KRAS]	83,000 M^−1cm^−1	591 nm and 588 nm			
CN1C(=Cc2cc[n+](C)c3ccccc23)Sc2ccccc21 [TO, thiazole orange, reference compound]	43,000 M^−1cm^−1	505 nm			
